# Experimental data: PMC11174489, “In Vitro Activation of Human Adrenergic Receptors and Trace Amine-Associated Receptor 1 by Phenethylamine Analogues Present in Food Supplements” (Nutrients, 2024)
# Assays:
# Type in all cases: cell-based
# [1] = target: T1, human adrenergic receptor (ADR) α1D (Homo sapiens, UniProt P25100); experiment: ADRα1D activation, Ca2+ influx (Fluo-8) in overexpressing chem-1 cells
# T1 construct: host or cells: rat chem-1 cells
# T1 sequence (P25100 1-572): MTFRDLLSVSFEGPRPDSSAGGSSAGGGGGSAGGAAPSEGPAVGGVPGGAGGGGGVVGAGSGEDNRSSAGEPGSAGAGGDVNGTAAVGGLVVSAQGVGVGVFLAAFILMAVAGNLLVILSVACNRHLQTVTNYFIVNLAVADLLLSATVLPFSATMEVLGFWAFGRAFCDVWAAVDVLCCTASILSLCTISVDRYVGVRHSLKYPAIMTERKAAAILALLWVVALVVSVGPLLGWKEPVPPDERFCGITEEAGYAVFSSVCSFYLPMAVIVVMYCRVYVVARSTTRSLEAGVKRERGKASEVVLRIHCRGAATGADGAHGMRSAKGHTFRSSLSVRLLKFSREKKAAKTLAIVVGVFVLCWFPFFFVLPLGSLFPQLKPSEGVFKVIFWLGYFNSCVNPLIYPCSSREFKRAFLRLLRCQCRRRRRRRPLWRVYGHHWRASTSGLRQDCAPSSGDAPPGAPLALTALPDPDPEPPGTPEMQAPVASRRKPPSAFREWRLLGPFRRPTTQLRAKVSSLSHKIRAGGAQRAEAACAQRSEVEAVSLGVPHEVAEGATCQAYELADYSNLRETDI
# [2] = target: T2, human adrenergic receptor (ADR) β1 (Homo sapiens, UniProt P08588); experiment: ADRβ1 activation, Ca2+ influx (Fluo-8) in overexpressing chem-1 cells; details: Chem-1, read-out: ADRβ1 Emax
# T2 construct: host or cells: rat chem-1 cells
# T2 sequence (P08588 whole entry): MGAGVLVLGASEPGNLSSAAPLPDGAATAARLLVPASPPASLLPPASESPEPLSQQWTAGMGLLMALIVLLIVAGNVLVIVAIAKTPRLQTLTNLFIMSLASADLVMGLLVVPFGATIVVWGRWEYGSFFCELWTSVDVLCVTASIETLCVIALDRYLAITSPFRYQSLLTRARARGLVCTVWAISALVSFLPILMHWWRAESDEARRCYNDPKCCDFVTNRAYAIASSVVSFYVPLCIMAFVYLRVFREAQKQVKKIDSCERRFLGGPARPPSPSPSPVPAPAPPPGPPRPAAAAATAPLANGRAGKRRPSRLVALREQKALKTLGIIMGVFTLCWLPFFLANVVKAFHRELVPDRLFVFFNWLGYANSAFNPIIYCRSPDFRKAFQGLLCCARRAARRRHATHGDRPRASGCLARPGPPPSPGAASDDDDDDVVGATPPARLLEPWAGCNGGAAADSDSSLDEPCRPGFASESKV
# From the text: (§1) Cells overexpressing human ADRs α1A, α1B, α1D, α2A, α2B, β1 and β2 (Eurofins Discovery Services, St. Charles, MO, USA, product numbers: HTS087RTA, HTS158RTA, HTS216RTA, HTS096RTA, HTS157LRTA, HTS104RTA and HTS073RTA, respectively) were used to study the potency (EC50) and efficacy (Emax) of the selected compounds for these receptors by quantifying Ca^2+ influx upon receptor activation. ADRα1A, α1B, α1D, α2A, β1 and β2 were overexpressed in rat chem-1 cells. ADRα2B was overexpressed in HEK293 cells. The cells were seeded (10,000–50,000 cells/well) in a black 96-well plate (VWR International, Leuven, Belgium) and incubated at 37 °C and 5% CO2 for 24 h. After 24 h, the cells were washed with Hank’s balanced salt solution (HBSS) (Gibco, Paisley, UK) containing 0.35 g/L sodium bicarbonate and incubated with 5 µg/mL Fluo-8 AM in HBSS (pH 7.4) supplemented with 2.5 mM probenecid for 1 h. […] Peak tops of the obtained fluorescence response–time curves were corrected for baseline fluorescence and used to construct concentration–response relationships.
# (§2) Concentration–response relationships for TAAR1 activation are presented as percentages of the maximal intracellular cAMP level induced by full the TAAR1 agonist phenethylamine and corrected for baseline cAMP accumulation. […] Experiments were run in duplicate in 7–9 independent experiments for ADR and were run in 3–5 independent experiments for TAAR1.
# [3] = target: T3, human adrenergic receptor (ADR) α1B (Homo sapiens, UniProt P35368); experiment: ADRα1B activation, Ca2+ influx (Fluo-8) in overexpressing chem-1 cells
# T3 construct: host or cells: rat chem-1 cells
# T3 sequence (P35368 1-520): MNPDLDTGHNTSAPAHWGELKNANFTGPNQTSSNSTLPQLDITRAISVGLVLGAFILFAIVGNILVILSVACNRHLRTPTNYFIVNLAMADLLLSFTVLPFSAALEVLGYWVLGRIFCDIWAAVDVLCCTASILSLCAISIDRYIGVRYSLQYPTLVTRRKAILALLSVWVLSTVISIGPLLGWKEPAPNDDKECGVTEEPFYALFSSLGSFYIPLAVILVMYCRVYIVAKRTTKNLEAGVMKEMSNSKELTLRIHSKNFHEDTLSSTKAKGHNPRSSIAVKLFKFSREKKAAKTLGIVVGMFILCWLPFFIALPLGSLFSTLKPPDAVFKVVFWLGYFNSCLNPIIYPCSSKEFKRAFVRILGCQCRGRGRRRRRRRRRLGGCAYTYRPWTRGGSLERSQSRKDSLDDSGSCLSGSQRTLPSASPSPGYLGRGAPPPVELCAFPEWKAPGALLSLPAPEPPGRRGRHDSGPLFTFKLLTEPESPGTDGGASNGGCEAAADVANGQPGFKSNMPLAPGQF
# From the text: as §1, §2
# [4] = target: T4, human adrenergic receptor (ADR) α2A (Homo sapiens, UniProt P08913); experiment: ADRα2A activation, Ca2+ influx (Fluo-8) in overexpressing chem-1 cells
# T4 construct: host or cells: rat chem-1 cells
# T4 sequence (P08913 1-465): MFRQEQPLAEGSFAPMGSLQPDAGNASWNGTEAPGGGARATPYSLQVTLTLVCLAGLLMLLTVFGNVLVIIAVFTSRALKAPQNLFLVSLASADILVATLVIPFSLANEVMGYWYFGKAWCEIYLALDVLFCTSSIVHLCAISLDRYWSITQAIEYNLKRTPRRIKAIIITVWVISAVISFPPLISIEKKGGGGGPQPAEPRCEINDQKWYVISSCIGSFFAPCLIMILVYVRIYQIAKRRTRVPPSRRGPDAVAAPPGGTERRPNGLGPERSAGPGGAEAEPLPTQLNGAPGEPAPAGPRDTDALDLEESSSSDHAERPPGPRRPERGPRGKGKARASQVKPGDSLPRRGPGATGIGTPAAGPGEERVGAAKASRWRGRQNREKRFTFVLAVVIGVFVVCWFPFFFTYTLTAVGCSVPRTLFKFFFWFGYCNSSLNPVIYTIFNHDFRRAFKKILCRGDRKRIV
# [5] = target: T5, human adrenergic receptor (ADR) β2 (Homo sapiens, UniProt P07550); experiment: ADRβ2 activation, Ca2+ influx (Fluo-8) in overexpressing chem-1 cells
# T5 construct: host or cells: rat chem-1 cells
# [6] = target: T6, human adrenergic receptor (ADR) α1A (Homo sapiens, UniProt P35348); experiment: ADRα1A activation, Ca2+ influx (Fluo-8) in overexpressing chem-1 cells; details: Chem-1
# T6 construct: host or cells: rat chem-1 cells
# T6 sequence (P35348 1-466): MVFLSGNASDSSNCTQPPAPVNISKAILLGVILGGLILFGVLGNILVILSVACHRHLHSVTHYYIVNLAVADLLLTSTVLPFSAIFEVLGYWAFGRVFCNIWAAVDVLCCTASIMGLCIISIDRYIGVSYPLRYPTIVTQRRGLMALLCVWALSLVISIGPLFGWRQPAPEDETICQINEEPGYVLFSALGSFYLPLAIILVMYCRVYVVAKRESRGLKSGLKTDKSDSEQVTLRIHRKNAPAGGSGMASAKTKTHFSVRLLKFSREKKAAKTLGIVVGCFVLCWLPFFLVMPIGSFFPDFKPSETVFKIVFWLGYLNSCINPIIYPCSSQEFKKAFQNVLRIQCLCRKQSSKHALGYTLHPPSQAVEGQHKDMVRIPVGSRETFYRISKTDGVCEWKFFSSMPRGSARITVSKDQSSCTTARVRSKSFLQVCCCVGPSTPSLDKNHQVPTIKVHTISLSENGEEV
# [7] = Ca2+ response, chem-1 cells, average (95% confidence interval), 7–9 experiments
# [8] = % of maximal signal obtained by adrenaline, average (95% CI)
Compound,"EC50 [1, 7] [µM]",Emax ([1]; Chem-1) [%],Emax [2] [%],"Emax ([3]; Chem-1, read-out: ADRα1B Emax) [%]","Emax ([4]; Chem-1, % of maximal signal obtained by adrenaline, average (95% CI)) [%]",Emax ([5]; Chem-1) [%],Emax [6] [%],"ADRα1D Emax [1, 8]","ADRα1B Emax [3, 8]","EC50 ([3]; Ca2+ response, chem-1 cells, average (95% confidence interval), 7–9 experiments, read-out: ADRα1B EC50) [µM]","EC50 [4, 7] [µM]","ADRβ2 Emax [5, 8]","EC50 [5, 7] [µM]"
"CNC[C@H](O)c1ccc(O)c(O)c1 [Adrenaline, adrenaline, reference compound]",0.0017,99,99,99,105,104,98,,,,,,
Methyltyramine,,,,,,,,-,-,> 300,> 300,-,> 300
